The results in this text go back to patent publication US10815219B2, “2,4-diaminoquinazoline derivatives for inhibiting endoplasmic reticulum (ER) stress” (The Board of Regents of the University of Oklahoma, priority 2017, dated 2020).

Holding throughout (format): cell-based, rat
One assay deals with ATF4 and CHOP mRNA. Description: qRT-PCR of ATF4 and CHOP in Tm-treated INS-1 cells. The conditions noted are these: Tm 0.1 μg/mL, 9c 20 μM, FIG. 8A, B. From the text: We then determined the effect of 9c on the activation of the PERK pathway in β cells under ER stress. Activated PERK phosphorylates eukaryotic translation initiator factor 2a (eIF2α), which in turn attenuates general protein synthesis to relieve ER load. EIF2α phosphorylation also allows the selective translation of ATF4 mRNA, which encodes a transcription factor that induces the expression of the pro-apoptotic gene C/EBP-homologous protein (CHOP). Thus, we used ATF4 and CHOP expression levels as markers of PERK pathway activation. […] Together, our results that 9c inhibited the ER stress-mediated activation of all three UPR pathways indicate that 9c protects β cell survival by alleviating ER stress.
(§1) INS-1 cells were seeded at 4×10^5 cells/well in 6-well plates and treated with compounds for the indicated times. Total RNA was extracted using TRIzol reagent (Invitrogen, Carlsbad, Calif.) according to the manufacturer's protocol, and 2 μg of total RNA was reverse transcribed using a Superscript kit (Invitrogen). Real-time PCR was performed in 96-well format using SYBR Select Master Mix (Applied Biosystems, Foster City, Calif.) with an ABI 7500 PCR system (Applied Biosystems). The primer sequences used are shown in U.S. Ser. No. 62/542,408, Aug. 8, […].
For orientation: Real-time PCR tracks product formation cycle by cycle.

For a further assay, the system named is Bip and GRP94 mRNA. Description: qRT-PCR of Bip and GRP94 in Tm-treated INS-1 cells. The conditions noted are these: Tm 0.1 μg/mL, 9c 20 μM, FIG. 7A, B. How it is done: We then asked whether 9c affects the activation of ATF6 in β cells under ER stress. Activated ATF6 acts as a homodimer or as an ATF6-XBP1s heterodimer to control the up-regulation of select UPR target genes including the chaperone proteins BiP and GRP94. We evaluated the effect of 9c on the mRNA levels of chaperones Bip and GRP94 in β cells in the presence of Tm.
as §1

In assay [1] the test system is INS-1 cells. Description: Glucose-stimulated insulin secretion in Tm-treated INS-1 cells. The settings on record: Tm 0.1 μg/mL, 24 h, 25 mM glucose, FIG. 5E. The source says: (§2) ER stress also impairs the most important function of β cells: the biosynthesis and secretion of insulin. Multiple steps of insulin synthesis and secretion are impaired under ER stress; they include insulin gene transcription, insulin mRNA stability, protein translation, and the insulin protein secretory process. First, we examined whether compound 9c could rescue Tm-suppressed mRNA levels of insulin genes. […] Second, we examined whether compound 9c affects the expression of β cell transcription factors PDX1 and MafA, which control β cell identity and the expression of insulin genes. Chronic exposure to supraphysiologic concentrations of glucose and its associated ER stress cause the down-regulation of expression of PDX1 and MafA. Consistent with this notion, Tm decreased the levels of PDX1 and MafA mRNA expression levels in INS-1 cells. […] Next, we explored whether compound 9c re-establishes Tm-impaired glucose-stimulated insulin secretion (GSIS).
INS-1 or primary human islet cells were plated in 96-well plates. […] The secreted insulin was measured with insulin ELISA kits (for mouse insulin from Millipore and for human insulin from LifeTech). Cells were lysed with RIPA buffer (50 mM Tris HCl pH 7.4, 1% NP-40, 0.25% sodium deoxycholate, 150 mM NaCl), and total cellular protein was determined with a Bradford protein assay. […]

The next assay deals with INS1 and INS2 mRNA. The assay is described as follows: qRT-PCR of insulin genes in Tm-treated INS-1 cells. The settings on record: Tm 0.1 μg/mL, 9c 20 μM, 24 h, FIG. 5A, B.
From the text: as §2
INS-1 cells were seeded at 4×10^5 cells/well in 6-well plates and treated with compounds for the indicated times. Total RNA was extracted using TRIzol reagent (Invitrogen, Carlsbad, Calif.) according to the manufacturer's protocol, and 2 μg of total RNA was reverse transcribed using a Superscript kit (Invitrogen). […]

Assay [2] relates to INS-1 cells. The assay is described as follows: INS-1 cell viability after BFA treatment (CellTiter-Glo). The settings on record: BFA 0.2 μg/mL, 9c 20 μM, 72 h, FIG. 3D. The source says: To rule out the possibility of an ATP-specific (rather than viability) effect of the compounds, we used the MTT assay, which measures the activity of NAD(P)H-dependent cellular oxidoreductase enzymes, as an orthogonal method to measure cell viability. […] To confirm that the protective effect of 9c on β cells is not INS-1 cell-specific, another β cell line, βTC6, was used. […] To determine whether the protective effect of 9c on β cells is specific to Tm-induced stress, we used another ER stressor, BFA, which inhibits a key guanine nucleotide exchange factor essential for the transport of proteins from the ER to the Golgi, to treat INS-1 cells.
INS-1 cells or βTC6 cells were seeded at 3×10^3 cells/well in a 384-well plate and treated with compounds at the indicated concentrations. After 3 d treatment, the medium was aspirated and 20 μL/well of CellTiter-Glo reagent (Promega, WI, USA) was added for the detection of intracellular ATP levels. Cell viability was measured with an EnVision multilabel plate reader (PerkinElmer, MA, USA).
(In general: ATP-based viability assays read luminescence as a measure of living cells.)

On to `COc1ccc(CNc2nc(N3CCCCC3CO)nc3ccccc23)cc1` (racemic) [Compound 9c, (1-(4-((4-methoxybenzyl)amino)quinazolin-2-yl)piperidin-2-yl)methanol], for which the “ATF4 and CHOP mRNA levels” value in the assay on ATF4 and CHOP mRNA was “decrease in both their levels”. In the assay on Bip and GRP94 mRNA, the “Bip and GRP94 mRNA levels” value is “almost completely suppressed”. Also, the “glucose-stimulated insulin secretion (GSIS)” value with INS-1 cells [1] is “significantly rescued the GSIS”. The “mRNA levels of insulin genes INS1 and INS2” value with INS1 and INS2 mRNA is “completely rescued”. The “viability of INS-1 cells against BFA” value with INS-1 cells [2] was “protected INS-1 cells against BFA”.
